# Data taken from US8802416B2, “Thermostable organic solvent tolerant protease from gram-positive bacteria” (Universiti Putra Malaysia, priority 2009, dated 2014).
# Square brackets hold non-standard residues; d marks the D form. Peptide text beside a SMILES is read from it. * marks the point of attachment. Sta = CC(C)C[C@H](N)[C@@H](O)CC(=O)O; Isovaleryl = CC(C)CC(=O)*
# Columns and labels:
# [1] = tested on: Rand protease; assay: Effect of inhibitors on protease activity; format: biochemical, Bacillus subtilis isolate Rand; conditions: 5 mM inhibitor, 30 min at 37° C., relative to control
# Procedure: Purified Rand protease was incubated with 5 mM of different inhibitors at 37° C. for 30 min.
# All the inhibitors were used at 5 mM final concentration.
# [2] = tested on: Rand protease; assay: Effect of organic solvents on stability of crude Rand protease (cell-free supernatant); format: biochemical, Bacillus subtilis isolate Rand; conditions: 25% (v/v) solvent, 55° C., 150 rpm, 30 min, control distilled water
# Procedure: 1. […] Three ml aliquots of a cell-free supernatant culture were incubated with 1 ml of different organic solvents at 55° C. with shaking at 150 rpm for 30 min.
# Each sample was run in triplicate.
# Isolate Rand was cultured aerobically at 50° C. for 24 h in the absence of organic solvents. The culture medium was then centrifuged at 12,000×g and 4° C. for 10 min. The supernatant was filtered with a cellulose acetate membrane filter (pore size 0.22 μm). One mL organic solvent was added to 3.0 mL of the cell-free supernatant and the whole mixture was incubated in shaker 150 rpm at 55° C. for 30 min. The samples were removed and immediately vortex prior to assay at zero time and after incubation period. For control the solvent was replaced by distilled water.
# [3] = tested on: Rand protease; assay: Effect of metal ions on protease activity; format: biochemical, Bacillus subtilis isolate Rand; conditions: 5 mM metal ion, 37° C., 30 min; control no ions
# Procedure: Purified Rand protease was treated with 5 mM of various metal ions at 37° C. for […].
# The effect of metal ions on protease activity was determined by incubating the protease with different metal ions at 5 mM final concentration. The metal ions used were K^+, Na^+, Mg^2+, Ca^2+, Mg^2+, Fe^2+, Co^2+, Cu^2+, Zn^2+ and […]. The samples were incubated at 37° C. for 30 min. […] The control contained no ions.
# [4] = tested on: protease activity of B. megaterium; conditions: presence of Zn2+; cited from earlier work
# [5] = tested on: Bacillus sp. TKU004 protease; conditions: zinc ions; cited from earlier work
# [6] = tested on: thermophilic Bacillus strain HS08 protease; conditions: cited from earlier work
# [7] = cited from earlier work
# [8] = tested on: Rand protease; assay: Effect of organic solvents on purified Rand protease activity; format: biochemical, Bacillus subtilis isolate Rand; conditions: 25% (v/v) solvent, 37° C., 150 rpm, 30 min, no solvent = 100%
# Procedure: . Three ml of purified Rand protease were incubated with 1 ml of different organic solvents at 37° C. with shaking at 150 rpm for 30 min. The activity of the enzyme without any solvent (none) was taken as 100%.
# The effects of organic solvents with various log P on protease activity were determined. […] . The control was done in the absent of organic solvent and assay under the same experimental conditions. The protease was incubated in the presence of 25% (v/v) of organic solvents for 30 min. The incubation was performed at 37° C. in water bath shaker with 150 rpm. The samples were removed and immediately vortex prior to assay the protease activity.
compound,measurement,setting,value
"CC(C)C[C@H](NC(=O)[C@@H](O)[C@H](N)Cc1ccccc1)C(=O)O [Bestatin, bestatin]",protease activity retained,[1],about 95%
Cc1ccccc1 [toluene],remaining activity of Rand protease in the presence of organic solvent,[2],130%
same,remaining activity of Rand protease in the presence of organic solvent,[2]; listed as toluen,enhanced
[Cu+2] [Cu^2+],protease activity in the presence of metal ion,[3],inhibitory effects
"CC(C)CC(=O)N[C@H](C(=O)N[C@H](C(=O)N[C@@H](CC(C)C)[C@@H](O)CC(=O)N[C@@H](C)C(=O)N[C@@H](CC(C)C)[C@@H](O)CC(=O)O)C(C)C)C(C)C [Pepstatin A, pepstatin A] (Isovaleryl-VV[Sta]A[Sta]-OH)",protease activity retained,[1],~63%
[Zn+2] [Zn^2+],relative activities,[4],28%
same,"activity of the apo-enzyme restored, of the original level",[5],75%
same,relative activity,[6]; 2 mM Zn2+,109%
"O[C@@H](CS)[C@@H](O)CS (racemic) [DTT, 1,4-Dithio-DL-threitol]",reduction (inhibition) of protease activity,[1],30%
"OCCS [2-mercaptoethanol, 2-Mercaptoethanol]",reduction (inhibition) of protease activity,[1],About 90%
[Ca+2] [Ca^2+],protease activity in the presence of metal ion,[3],around 89%
same,influence on proteolytic activity,[6]; Ca2+ ions,did not show any influence
c1ccncc1 [pyridine],remaining activity of Rand protease in the presence of organic solvent,[2],no activity was observed
CCCCCCCCCCCCCC [n-tetradecane],log P,[7],7.6
[Ni+2] [Ni^2+],protease activity in the presence of metal ion,[3],inhibitory effects
CCCCCCCCCCCC [n-dodecane],log P,[7],6.0
[Co+2] [Co^2+],protease activity in the presence of metal ion,[3],inhibitory effects
[K+] [K^+],protease activity in the presence of metal ion,[3],~112%
[Fe+2] [Fe^2+],protease activity in the presence of metal ion,[3],inhibitory effects
[Mg+2] [Mg^2+],protease activity in the presence of metal ion,[3],inhibitory effects
ClC(Cl)Cl [chloroform],relative activity remaining in organic solvent,[8],18%
"O=S(=O)(F)Cc1ccccc1 [PMSF, phenylmethanesulfonyl fluoride]",reduction (inhibition) of protease activity,[1],completely inhibited
